Data: patent publication US12024510B2, “Pyrazolopyridine-diamides, their use as insecticide and processes for preparing the same” (PI INDUSTRIES LTD., priority 2017, dated 2024)

Experiments:
Format in all cases: in vivo
[1] = tested on: Helicoverpa armigera; test: Helicoverpa armigera diet incorporation method; conditions: third instar larvae, dead and moribund combined, 96 h after release
In short: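 Third-instar larvae, starved, were placed singly on diet pieces containing test dispersion (bead-milled in surfactant, particles under 2 μm, 500 ppm stock then diluted). Trays kept at 25° C. and 70% RH; mortality counted at 96 h, moribund larvae counted with dead.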

[2] = tested on: Plutella xylostella; test: whole plant or invertebrate; conditions: foliar, cabbage leaf dip, second instar larvae, dead and moribund combined, 72 h after release
In short: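 Leaf-dip bioassay: second-instar larvae, singly, fed on cabbage leaves dipped 10 s in test dispersion (bead-milled, diluted with 0.01% Triton-X to test concentration) and dried 20 min. Held at 25 °C, 70% RH; % mortality counts dead and moribund at 72 h.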

[3] = tested on: Spodoptera litura; test: Spodoptera litura diet incorporation method; conditions: third instar larvae, dead and moribund combined, 96 h after release
Description: Test Solutions were Prepared According to the Procedure Described Herein Below (500 PPM):
• 1. Eppendorf Vortex mixer (ThermoMixer C) and 1.5 mL Eppendorf tubes • 2. Zirconia (Zirconium-Yttrium) beads having diameter of 0.8 to 1.0 mm • 3. Microscope • 4. Beaker 100 mL • 5. Micro-pipette Reagents: • 1. Surfactant Solution • 2. De-mineralized (DM) Water • 1. Weigh 10 mg of the compound of the present invention to be tested in an Eppendorf Tube. • 2. Add 200 mg of the Surfactant Solution into the tube. • 3. Add 600 mg of Zirconia beads into the above mixture. • 4. Fix the tube in Eppendorf Vortex mixer and start vortexing at 2000 rpm. • 5. Mix on Vortex mixer for 30 minutes. After 30 minutes, observe the sample over a microscope at 400× resolution. • 6. If the Maximum particle size is more than 5 μm or average particle size is more than 2 μm or the particle size distribution is uneven, continue vortexing for another 30 minutes and again check the particle size using the microscope. Continue till the average particle size is below 2 microns. • 7. When the required particle size is achieved, add 1.0 mL DM water into the tube, close the cap, shake the tube thoroughly and transfer the contents, along with the beads, into a beaker. • 8. To rinse the tube, add another 1.0 mL of DM water into the tube, close the cap, shake well and transfer this into the same beaker. • 9. Repeat Step no. 8 one more time so that the tube is rinsed well and the compound of the present invention to be tested is transferred to the beaker. • 10. Add 16.8 mL of DM water into the beaker and stir well. • 11. The homogeneous dispersion can then be decanted into a glass vial, immediately, to separate the Zirconia beads. • 12. Immediately use this sample for biological testing. • 13. Further dilutions can be prepared by taking appropriate quantity of the aliquot of Step 10, immediately after stirring, and diluting as per requirement. The sample solution must be well mixed just before biological testing.
Diet incorporation method was used, in which semi-synthetic diet was incorporated into the test solution when the temperature is approximately 50° C. in the bioassay containers and stirred thoroughly for properly mixing and then was allowed to cool for 30 min. The solidified diet was cut into equal pieces, and then each piece was transferred in one cell in Bio-assay trays. A single third instar starved larva was released into each of these cells of bioassay trays and the tray was covered with the lid. The bio-assay trays were kept under laboratory conditions at a temperature of 25° C. and Relative Humidity of 70%. Observations on dead, moribund and live larvae were recorded at 96 h after the release of larvae. Percent mortality was calculated by combining dead and moribund larvae. The following compound numbers

SMILES	mortality at 300 ppm [1]	mortality at 300 ppm [2]	mortality at 300 ppm [3]
CNC(=O)c1c(NC(=O)c2cc(Br)nn2-c2ncccc2Cl)c(C)cc2ccnn12 [Compound 1, 6-(3-bromo-1-(3-chloropyridin-2-yl)-1H-pyrazole-5-carboxamido)-N,5-dimethylpyrazolo[1,5-a]pyridine-7-carboxamide]	> 70%	> 70%	> 70%
CCNC(=O)c1c(NC(=O)c2cc(Br)nn2-c2ncccc2Cl)c(C)cc2ccnn12 [Compound 2, 6-(3-bromo-1-(3-chloropyridin-2-yl)-1H-pyrazole-5-carboxamido)-N-ethyl-5-methylpyrazolo[1,5-a]pyridine-7-carboxamide]	> 70%	> 70%	> 70%
Cc1cc2ccnn2c(C(=O)NCC2CC2)c1NC(=O)c1cc(Br)nn1-c1ncccc1Cl [Compound 3, 6-(3-bromo-1-(3-chloropyridin-2-yl)-1H-pyrazole-5-carboxamido)-N-(cyclopropylmethyl)-5-methylpyrazolo[1,5-a]pyridine-7-carboxamide]	> 70%	> 70%	> 70%
Cc1cc2ccnn2c(C(=O)NC(C)C)c1NC(=O)c1cc(Br)nn1-c1ncccc1Cl [Compound 4, 6-(3-bromo-1-(3-chloropyridin-2-yl)-1H-pyrazole-5-carboxamido)-N-isopropyl-5-methylpyrazolo[1,5-a]pyridine-7-carboxamide]	> 70%	> 70%	> 70%
Cc1cc2ccnn2c(C(=O)NC2CC2)c1NC(=O)c1cc(Br)nn1-c1ncccc1Cl [Compound 5, 6-(3-bromo-1-(3-chloropyridin-2-yl)-1H-pyrazole-5-carboxamido)-N-cyclopropyl-5-methylpyrazolo[1,5-a]pyridine-7-carboxamide]	> 70%	> 70%	> 70%
Cc1cc2ccnn2c(C(=O)NC(C)C2CC2)c1NC(=O)c1cc(OCC(F)(F)F)nn1-c1ncccc1Cl (stereo not shown) [Compound 121, 6-(1-(3-chloropyridin-2-yl)-3-(2,2,2-trifluoroethoxy)-1H-pyrazole-5-carboxamido)-N-(1-cyclopropylethyl)-5-methylpyrazolo[1,5-a]pyridine-7-carboxamide]	> 70%	–	> 70%
COc1cc(C(=O)Nc2c(Cl)cc3ccnn3c2C(=O)NC(C)(C)C)n(-c2ncccc2Cl)n1 [Compound 136, N-(tert-butyl)-5-chloro-6-(1-(3-chloropyridin-2-yl)-3-methoxy-1H-pyrazole-5-carboxamido)pyrazolo[1,5-a]pyridine-7-carboxamide]	> 70%	–	> 70%
Cc1cc2ccnn2c(C(=O)NC(C)C2CC2)c1NC(=O)c1cc(OC2CSC2)nn1-c1ncccc1Cl (stereo not shown) [Compound 146, 6-(1-(3-chloropyridin-2-yl)-3-(thietan-3-yloxy)-1H-pyrazole-5-carboxamido)-N-(1-cyclopropylethyl)-5-methylpyrazolo[1,5-a]pyridine-7-carboxamide]	> 70%	–	> 70%
Cc1cc2ccnn2c(C(=O)NC2CC2)c1NC(=O)c1cc(Cn2nnc(C(F)(F)F)n2)nn1-c1ncccc1Cl [Compound 168, 6-(1-(3-chloropyridin-2-yl)-3-((5-(trifluoromethyl)-2H-tetrazol-2-yl)methyl)-1H-pyrazole-5-carboxamido)-N-cyclopropyl-5-methylpyrazolo[1,5-a]pyridine-7-carboxamide]	> 70%	–	> 70%
Cc1cc2ccnn2c(C(=O)NC(C)C2CC2)c1NC(=O)c1cc(Cn2nnc(C(F)(F)F)n2)nn1-c1ncccc1Cl (stereo not shown) [Compound 169, 6-(1-(3-chloropyridin-2-yl)-3-((5-(trifluoromethyl)-2H-tetrazol-2-yl)methyl)-1H-pyrazole-5-carboxamido)-N-(1-cyclopropylethyl)-5-methylpyrazolo[1,5-a]pyridine-7-carboxamide]	> 70%	–	> 70%
